Source: ChEMBL document CHEMBL1145094, “A novel and selective 5-HT2 receptor agonist with ocular hypotensive activity: (S)-(+)-1-(2-aminopropyl)-8,9-dihydropyrano[3,2-e]indole” (J Med Chem, 2003)

Key:
[1] = biological target: T1, Alpha-1A adrenergic receptor (Rattus norvegicus, UniProt P43140); test: Inhibitory constant against Alpha-1A adrenergic receptor using [3H]-7-MeO prazosin radioligand
T1 sequence (P43140 whole entry): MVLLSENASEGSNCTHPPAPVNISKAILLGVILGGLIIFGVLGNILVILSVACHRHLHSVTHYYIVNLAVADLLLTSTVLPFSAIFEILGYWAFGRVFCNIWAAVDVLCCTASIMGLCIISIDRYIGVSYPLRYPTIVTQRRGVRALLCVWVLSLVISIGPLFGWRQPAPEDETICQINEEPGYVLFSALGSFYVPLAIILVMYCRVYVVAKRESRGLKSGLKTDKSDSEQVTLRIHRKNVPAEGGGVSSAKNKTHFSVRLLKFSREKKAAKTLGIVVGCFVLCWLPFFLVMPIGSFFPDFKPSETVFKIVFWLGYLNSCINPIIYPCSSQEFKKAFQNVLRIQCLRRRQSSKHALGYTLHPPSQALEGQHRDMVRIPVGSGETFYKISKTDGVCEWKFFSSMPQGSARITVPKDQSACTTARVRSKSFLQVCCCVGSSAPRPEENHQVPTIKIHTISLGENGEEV

[2] = biological target: T2, Alpha-2C adrenergic receptor (Homo sapiens, UniProt P18825); test: Inhibitory concentration required against Alpha-2C adrenergic receptor using [3H]clonidine radioligand
[3] = biological target: 5-hydroxytryptamine receptor 2A (Rattus norvegicus) (UniProt P14842); test: In vitro efficacy against rat 5-hydroxytryptamine 2A receptor determined by using PI assay (Emax)
Sequence of 5-hydroxytryptamine receptor 2A (Rattus norvegicus) (P14842 whole entry): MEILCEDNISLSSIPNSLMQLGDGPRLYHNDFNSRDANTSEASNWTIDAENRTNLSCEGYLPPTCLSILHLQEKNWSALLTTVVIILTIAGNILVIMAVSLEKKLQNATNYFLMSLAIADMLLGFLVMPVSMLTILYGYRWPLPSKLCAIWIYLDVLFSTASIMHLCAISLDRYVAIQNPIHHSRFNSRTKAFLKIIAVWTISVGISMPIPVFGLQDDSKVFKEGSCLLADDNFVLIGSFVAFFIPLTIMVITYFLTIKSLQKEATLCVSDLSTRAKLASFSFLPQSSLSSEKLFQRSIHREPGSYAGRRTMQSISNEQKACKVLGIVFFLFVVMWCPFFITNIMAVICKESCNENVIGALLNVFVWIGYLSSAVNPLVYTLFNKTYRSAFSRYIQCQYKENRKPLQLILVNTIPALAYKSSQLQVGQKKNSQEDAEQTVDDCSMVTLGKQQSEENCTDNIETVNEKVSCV

[4] = biological target: Alpha-2B adrenergic receptor (Rattus norvegicus, UniProt P19328); test: Inhibitory constant against Alpha-2B adrenergic receptor using [3H]MK-912 radioligand
Sequence of Alpha-2B adrenergic receptor (P19328 whole entry): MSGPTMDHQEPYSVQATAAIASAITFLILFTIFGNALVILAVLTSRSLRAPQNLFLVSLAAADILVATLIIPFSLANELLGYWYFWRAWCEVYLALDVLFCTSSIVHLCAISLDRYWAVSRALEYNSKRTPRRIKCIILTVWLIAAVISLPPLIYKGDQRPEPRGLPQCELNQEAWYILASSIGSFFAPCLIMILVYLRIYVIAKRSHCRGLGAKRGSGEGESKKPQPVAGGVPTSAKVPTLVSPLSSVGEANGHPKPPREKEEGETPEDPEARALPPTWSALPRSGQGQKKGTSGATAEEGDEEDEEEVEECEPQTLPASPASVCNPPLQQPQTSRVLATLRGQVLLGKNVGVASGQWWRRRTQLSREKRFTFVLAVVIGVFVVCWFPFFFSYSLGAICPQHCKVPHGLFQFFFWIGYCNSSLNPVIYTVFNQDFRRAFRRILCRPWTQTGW

Monkey [5] = test: Tested for the ability to lower IOP in conscious cynomolgus monkeys with laser-induced ocular hypertension after 6 hr postdose of the compound; assay type: functional, Cercopithecidae, Eye
[6] = biological target: Sodium-dependent noradrenaline transporter (Homo sapiens, UniProt P23975); test: Inhibitory constant against norepinephrine transporter receptor using [3H]radioligand
Sequence of Sodium-dependent noradrenaline transporter (P23975 whole entry): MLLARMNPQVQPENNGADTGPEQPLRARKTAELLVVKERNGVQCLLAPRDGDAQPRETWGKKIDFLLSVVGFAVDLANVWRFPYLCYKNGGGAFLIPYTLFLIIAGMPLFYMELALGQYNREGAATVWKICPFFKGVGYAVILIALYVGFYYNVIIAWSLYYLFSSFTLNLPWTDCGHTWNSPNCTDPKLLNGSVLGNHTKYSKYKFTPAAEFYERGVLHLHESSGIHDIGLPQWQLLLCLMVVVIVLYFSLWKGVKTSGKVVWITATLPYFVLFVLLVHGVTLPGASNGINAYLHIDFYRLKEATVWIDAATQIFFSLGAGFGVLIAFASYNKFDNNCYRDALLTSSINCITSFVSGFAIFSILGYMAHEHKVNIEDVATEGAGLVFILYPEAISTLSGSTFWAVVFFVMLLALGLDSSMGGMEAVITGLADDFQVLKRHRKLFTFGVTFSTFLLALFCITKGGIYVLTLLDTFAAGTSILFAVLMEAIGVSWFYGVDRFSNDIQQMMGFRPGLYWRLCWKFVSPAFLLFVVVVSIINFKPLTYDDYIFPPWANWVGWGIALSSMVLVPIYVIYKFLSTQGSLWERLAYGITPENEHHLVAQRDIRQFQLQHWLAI

[7] = biological target: 5-hydroxytryptamine receptor 3A (Homo sapiens, UniProt P46098); test: Inhibitory constant against 5-hydroxytryptamine 3 receptor using [3H]GR-65630 radioligand
Sequence of 5-hydroxytryptamine receptor 3A (P46098 whole entry): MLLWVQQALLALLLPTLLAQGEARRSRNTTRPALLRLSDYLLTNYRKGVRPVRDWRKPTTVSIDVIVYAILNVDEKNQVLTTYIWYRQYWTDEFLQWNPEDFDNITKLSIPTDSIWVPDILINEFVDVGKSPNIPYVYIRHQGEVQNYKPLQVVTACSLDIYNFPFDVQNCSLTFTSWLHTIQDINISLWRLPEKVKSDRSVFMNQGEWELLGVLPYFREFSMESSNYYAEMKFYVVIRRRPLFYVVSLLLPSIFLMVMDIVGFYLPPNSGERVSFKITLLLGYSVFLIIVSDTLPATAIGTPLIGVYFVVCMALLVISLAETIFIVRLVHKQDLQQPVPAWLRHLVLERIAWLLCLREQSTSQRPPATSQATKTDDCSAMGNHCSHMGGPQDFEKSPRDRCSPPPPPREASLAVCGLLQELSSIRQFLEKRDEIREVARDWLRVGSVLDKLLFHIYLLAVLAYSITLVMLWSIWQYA

[8] = biological target: T3, 5-hydroxytryptamine receptor 2A (Rattus norvegicus, UniProt P14842); test: In vitro inhibition of [125I]DOI binding to 5-hydroxytryptamine 2A receptor in rat cerebral cortex; assay type: tissue-based
T3 sequence (P14842 whole entry): as the sequence (P14842 whole entry) above

[9] = biological target: 5-hydroxytryptamine receptor 4 (Homo sapiens, UniProt Q13639); test: Inhibitory constant against 5-hydroxytryptamine 4 receptor using [3H]GR-113808 radioligand
Sequence of 5-hydroxytryptamine receptor 4 (Q13639 whole entry): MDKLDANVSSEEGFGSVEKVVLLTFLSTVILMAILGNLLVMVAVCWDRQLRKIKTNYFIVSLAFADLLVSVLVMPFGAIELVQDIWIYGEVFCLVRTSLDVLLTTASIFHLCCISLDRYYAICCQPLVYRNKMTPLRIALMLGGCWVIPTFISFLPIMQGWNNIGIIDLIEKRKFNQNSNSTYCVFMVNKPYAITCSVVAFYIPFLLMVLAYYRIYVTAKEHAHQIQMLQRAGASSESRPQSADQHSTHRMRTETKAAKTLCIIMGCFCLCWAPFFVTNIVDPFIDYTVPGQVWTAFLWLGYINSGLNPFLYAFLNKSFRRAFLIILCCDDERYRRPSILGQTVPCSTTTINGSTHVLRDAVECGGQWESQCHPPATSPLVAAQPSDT

[10] = biological target: T4, 5-hydroxytryptamine receptor 2A (Homo sapiens, UniProt P28223); test: Inhibitory constant against cloned human 5-hydroxytryptamine 2A receptor using with [125I]- DOI radioligand
Monkey [11] = test: Tested for the ability to lower IOP in conscious cynomolgus monkeys with laser-induced ocular hypertension after 1 hr postdose of the compound; assay type: functional, Cercopithecidae, Eye
[12] = biological target: 5-hydroxytryptamine receptor 6 (Homo sapiens, UniProt P50406); test: Inhibitory constant against human 5-hydroxytryptamine 6 receptor using [3H]LSD radioligand
Sequence of 5-hydroxytryptamine receptor 6 (P50406 whole entry): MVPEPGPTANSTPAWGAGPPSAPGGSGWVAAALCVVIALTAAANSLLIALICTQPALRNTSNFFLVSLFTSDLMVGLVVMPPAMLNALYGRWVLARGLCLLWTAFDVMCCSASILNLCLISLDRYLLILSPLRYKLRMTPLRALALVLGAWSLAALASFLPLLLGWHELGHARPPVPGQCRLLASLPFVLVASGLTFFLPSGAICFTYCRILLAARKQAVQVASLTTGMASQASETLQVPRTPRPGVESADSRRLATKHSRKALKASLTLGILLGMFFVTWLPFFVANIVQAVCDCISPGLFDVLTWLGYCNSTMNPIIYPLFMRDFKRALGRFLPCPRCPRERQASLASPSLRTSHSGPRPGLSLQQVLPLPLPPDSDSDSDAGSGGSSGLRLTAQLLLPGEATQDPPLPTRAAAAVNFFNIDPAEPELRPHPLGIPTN

[13] = biological target: 5-hydroxytryptamine receptor 2B (Homo sapiens, UniProt P41595); test: Inhibitory constant against cloned human 5-hydroxytryptamine 2B receptor using with [125I]- DOI radioligand
Sequence of 5-hydroxytryptamine receptor 2B (P41595 whole entry): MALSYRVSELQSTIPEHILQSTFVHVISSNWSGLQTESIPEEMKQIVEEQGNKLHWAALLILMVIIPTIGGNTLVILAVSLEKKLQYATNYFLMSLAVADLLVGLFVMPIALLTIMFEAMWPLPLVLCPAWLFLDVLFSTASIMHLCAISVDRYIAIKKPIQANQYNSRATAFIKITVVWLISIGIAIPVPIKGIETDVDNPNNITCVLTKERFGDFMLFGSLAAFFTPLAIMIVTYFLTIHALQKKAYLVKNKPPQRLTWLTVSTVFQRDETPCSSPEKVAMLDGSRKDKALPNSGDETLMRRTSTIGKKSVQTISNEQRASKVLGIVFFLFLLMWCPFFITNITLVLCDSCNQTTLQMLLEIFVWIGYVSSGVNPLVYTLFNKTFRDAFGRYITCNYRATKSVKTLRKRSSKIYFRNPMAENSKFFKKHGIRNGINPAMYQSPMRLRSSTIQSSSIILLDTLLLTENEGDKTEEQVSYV

[14] = biological target: T1, Alpha-1A adrenergic receptor; test: Inhibitory constant against Alpha-1B adrenergic receptor using [3H]-7-MeO prazosin radioligand
[15] = biological target: Sodium-dependent serotonin transporter (Homo sapiens, UniProt P31645); test: Inhibitory constant against human serotonin transporter using [3H]N-Me-citalopram radioligand
[16] = biological target: T5, 5-hydroxytryptamine receptor 1A (Homo sapiens, UniProt P08908); test: In vitro inhibitory concentration required against [3H]8-OH-DPAT binding to cloned human 5-hydroxytryptamine 1A receptor
T5 sequence (P08908 whole entry): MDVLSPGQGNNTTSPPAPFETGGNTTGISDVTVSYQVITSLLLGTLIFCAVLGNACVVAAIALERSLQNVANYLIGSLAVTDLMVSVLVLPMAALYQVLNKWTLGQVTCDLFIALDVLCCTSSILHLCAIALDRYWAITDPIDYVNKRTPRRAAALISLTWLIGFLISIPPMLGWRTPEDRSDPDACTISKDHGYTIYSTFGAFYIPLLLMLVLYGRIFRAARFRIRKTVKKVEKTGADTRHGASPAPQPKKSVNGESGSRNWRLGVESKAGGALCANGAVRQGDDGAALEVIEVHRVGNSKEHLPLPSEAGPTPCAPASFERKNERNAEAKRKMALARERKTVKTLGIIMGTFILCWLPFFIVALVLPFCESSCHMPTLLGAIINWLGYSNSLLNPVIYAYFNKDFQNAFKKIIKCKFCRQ

Monkey [17] = test: Tested for the ability to lower IOP in conscious cynomolgus monkeys with laser-induced ocular hypertension after 3h postdose of the compound; assay type: functional, Cercopithecidae, Eye
[18] = biological target: 5-hydroxytryptamine receptor 7 (Homo sapiens, UniProt P34969); test: Inhibitory constant against human 5-hydroxytryptamine 7 receptor using [3H]LSD radioligand
[19] = biological target: T5, 5-hydroxytryptamine receptor 1A; test: Tested for functional response on CHO cells expressing cloned human 5-hydroxytryptamine 1A receptor; assay type: cell-based
[20] = biological target: 5-hydroxytryptamine receptor 1B (Homo sapiens, UniProt P28222); test: Inhibitory constant against 5-hydroxytryptamine 1B receptor using with [125I]- cyanopindolol radioligand
Sequence of 5-hydroxytryptamine receptor 1B (P28222 whole entry): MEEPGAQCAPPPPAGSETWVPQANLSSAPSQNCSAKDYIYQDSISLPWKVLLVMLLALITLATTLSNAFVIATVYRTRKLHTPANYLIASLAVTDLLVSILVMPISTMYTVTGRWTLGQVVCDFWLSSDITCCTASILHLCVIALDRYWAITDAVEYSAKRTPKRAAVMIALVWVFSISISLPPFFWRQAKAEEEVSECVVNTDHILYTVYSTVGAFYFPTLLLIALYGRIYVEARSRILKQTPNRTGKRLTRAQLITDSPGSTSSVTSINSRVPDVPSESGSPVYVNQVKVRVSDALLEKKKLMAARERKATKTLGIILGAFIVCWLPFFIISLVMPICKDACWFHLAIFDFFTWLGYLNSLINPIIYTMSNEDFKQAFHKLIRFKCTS

[21] = biological target: T6, 5-hydroxytryptamine receptor 2C (Homo sapiens, UniProt P28335); test: Inhibitory constant against cloned human 5-hydroxytryptamine 2C receptor using with [125I]- DOI radioligand
T6 sequence (P28335 whole entry): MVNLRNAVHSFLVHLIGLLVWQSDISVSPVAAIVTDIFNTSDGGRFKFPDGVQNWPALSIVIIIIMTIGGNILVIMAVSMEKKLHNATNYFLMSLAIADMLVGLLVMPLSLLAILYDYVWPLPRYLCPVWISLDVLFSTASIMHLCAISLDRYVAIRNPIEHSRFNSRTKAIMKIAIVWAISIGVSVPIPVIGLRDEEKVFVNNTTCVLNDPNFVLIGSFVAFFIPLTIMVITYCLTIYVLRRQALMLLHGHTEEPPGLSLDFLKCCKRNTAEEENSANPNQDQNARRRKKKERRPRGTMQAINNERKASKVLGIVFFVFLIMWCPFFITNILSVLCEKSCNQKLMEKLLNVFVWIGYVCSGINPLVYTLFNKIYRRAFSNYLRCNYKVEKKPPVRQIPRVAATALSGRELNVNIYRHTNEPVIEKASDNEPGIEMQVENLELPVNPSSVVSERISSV

[22] = biological target: Alpha-2A adrenergic receptor (Homo sapiens, UniProt P08913); test: (§1) Inhibitory concentration required against Alpha-2A adrenergic receptor using [3H]clonidine radioligand
[23] = biological target: 5-hydroxytryptamine receptor 2A (Rattus norvegicus) (UniProt P14842); test: In vitro efficacy against rat 5-hydroxytryptamine 2A receptor was determined by using CA+ assay (Emax)
[24] = biological target: 5-hydroxytryptamine receptor 5A (Homo sapiens, UniProt P47898); test: Inhibitory constant against human 5-hydroxytryptamine 5A receptor using [3H]LSD radioligand
Sequence of 5-hydroxytryptamine receptor 5A (P47898 whole entry, looked up): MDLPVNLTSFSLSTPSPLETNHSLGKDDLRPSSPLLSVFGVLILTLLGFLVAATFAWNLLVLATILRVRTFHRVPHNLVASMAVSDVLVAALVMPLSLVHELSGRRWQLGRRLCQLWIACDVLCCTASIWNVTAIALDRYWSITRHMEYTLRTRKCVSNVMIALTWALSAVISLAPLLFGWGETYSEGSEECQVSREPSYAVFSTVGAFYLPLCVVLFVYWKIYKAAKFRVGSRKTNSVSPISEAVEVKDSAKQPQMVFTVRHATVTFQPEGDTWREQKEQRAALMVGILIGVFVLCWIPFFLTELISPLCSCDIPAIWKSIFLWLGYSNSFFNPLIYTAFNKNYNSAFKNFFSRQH

[25] = biological target: T3, 5-hydroxytryptamine receptor 2A; test: In vitro inhibitory constant against [125I]DOI binding to 5-hydroxytryptamine 2A receptor in rat cerebral cortex; assay type: tissue-based
[26] = biological target: T3, 5-hydroxytryptamine receptor 2A; test: In vitro relative agonist activity against 5-hydroxytryptamine 2A using PI assay in rat vascular smooth muscle cells; assay type: functional
[27] = biological target: T4, 5-hydroxytryptamine receptor 2A; test: Inhibitory constant determined against cloned human 5-hydroxytryptamine 2A receptor using with [125I]- DOI radioligand
Target sequence in this assay (P28223 whole entry): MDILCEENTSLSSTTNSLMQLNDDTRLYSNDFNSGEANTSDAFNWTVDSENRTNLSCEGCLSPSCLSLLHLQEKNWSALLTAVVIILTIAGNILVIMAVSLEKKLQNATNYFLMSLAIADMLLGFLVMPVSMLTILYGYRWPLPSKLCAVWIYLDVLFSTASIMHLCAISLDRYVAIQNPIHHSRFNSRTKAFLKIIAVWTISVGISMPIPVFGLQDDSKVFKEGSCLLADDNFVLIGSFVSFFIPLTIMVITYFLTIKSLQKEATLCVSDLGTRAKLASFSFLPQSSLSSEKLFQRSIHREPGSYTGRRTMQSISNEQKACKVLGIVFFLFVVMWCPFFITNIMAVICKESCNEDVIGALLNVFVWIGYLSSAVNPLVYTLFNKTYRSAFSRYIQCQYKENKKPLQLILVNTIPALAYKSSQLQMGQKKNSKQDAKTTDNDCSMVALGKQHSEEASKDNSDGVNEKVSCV

[28] = biological target: T1, Alpha-1A adrenergic receptor; test: Inhibitory constant against alpha-1A receptor using [3H]-7-MeO prazosin radioligand
[29] = biological target: 5-hydroxytryptamine receptor 1D (Homo sapiens, UniProt P28221); test: Inhibitory constant against human 5-hydroxytryptamine 1D receptor using [3H]5-CT radioligand
Sequence of 5-hydroxytryptamine receptor 1D (P28221 whole entry, looked up): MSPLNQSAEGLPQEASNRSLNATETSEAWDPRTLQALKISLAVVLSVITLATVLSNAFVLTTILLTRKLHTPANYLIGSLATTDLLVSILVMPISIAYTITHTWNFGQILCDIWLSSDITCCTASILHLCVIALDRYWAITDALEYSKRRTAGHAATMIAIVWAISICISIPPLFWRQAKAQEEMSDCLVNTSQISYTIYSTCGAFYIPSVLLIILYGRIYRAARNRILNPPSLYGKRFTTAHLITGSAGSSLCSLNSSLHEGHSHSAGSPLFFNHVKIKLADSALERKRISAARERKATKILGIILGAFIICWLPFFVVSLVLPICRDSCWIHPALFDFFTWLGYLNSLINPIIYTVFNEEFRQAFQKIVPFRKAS

[30] = biological target: Alpha-1B adrenergic receptor (Rattus norvegicus, UniProt P15823); test: Inhibitory constant against Alpha-1B adrenergic radioligand
[31] = biological target: T2, Alpha-2C adrenergic receptor; test: as §1

Row | Compound | Efficacy [3] | Reduction (Monkey [5]) | IC50 [8] | Ki [10] | Reduction (Monkey [11]) | Ki [13] | IC50 [16] | Reduction (Monkey [17]) | EC50 [19] | Ki [21] | Efficacy [23] | Ki [25] | EC50 [26] | Ki [27] | also measured
1 | CC(N)Cc1c[nH]c2ccc3c(c12)CCCO3 (stereo not given) | 81% | <22.9% | 0.0007 µM | 0.0036 µM | <16% | 0.013 µM | 10.9 µM | <28% | > 10 µM | 0.0055 µM | 97% | 0.0003 µM | – | – | Ki [1]: > 30 µM; IC50 [2]: > 30 µM; Ki [4]: 10 µM; Ki [6]: > 30 µM; Ki [7]: > 10 µM; Ki [9]: 1.8 µM; Ki [12]: 0.4 µM; Ki [14]: > 30 µM; Ki [15]: > 10 µM; Ki [18]: 24 µM; Ki [20]: > 10 µM; IC50 [22]: > 10 µM; Ki [24]: 1.9 µM
2 | COc1ccc2[nH]cc(CC(C)N)c2c1 (stereo not given) | 107% | 33.4% | 0.0044 µM | 0.0046 µM | 21.6% | 0.0078 µM | 0.0864 µM | 35.2% | 0.564 µM | 0.0083 µM | 96% | 0.0016 µM | 0.285 µM | – | –
3 | C[C@@H](N)Cc1c[nH]c2ccc3c(c12)CCCO3 | 83% | <32.5% | 0.0015 µM | – | <12.7% | 0.019 µM | 8.65 µM | <24.8% | – | 0.02 µM | 71% | 0.0005 µM | 0.292 µM | 0.0036 µM | –
4 | C[C@H](N)Cc1c[nH]c2ccc3c(c12)CCCO3 | 90% | <37% | 0.0005 µM | 0.002 µM | <18.1% | 0.0053 µM | > 10 µM | <33.2% | – | 0.0034 µM | 103% | 0.0002 µM | 0.0801 µM | – | Ki [28]: > 10 µM; Ki [4]: > 10 µM; Ki [29]: > 10 µM; Ki [6]: > 10 µM; Ki [7]: > 10 µM; Ki [9]: 1.7 µM; Ki [30]: > 10 µM; Ki [12]: 2.2 µM; Ki [15]: > 10 µM; Ki [20]: 3.3 µM; IC50 [31]: 14 µM; IC50 [22]: 19 µM; Ki [24]: > 10 µM
5 | NCCc1c[nH]c2ccc3c(c12)CCCO3 | 99% | – | 0.0018 µM | – | – | 0.014 µM | 0.287 µM | – | – | 0.0063 µM | 99% | 0.0006 µM | 0.181 µM | 0.0049 µM | –
6 | CC(N)Cc1c[nH]c2ccc(O)cc12 (stereo not given) | 98% | – | – | 0.012 µM | – | 0.013 µM | 0.0196 µM | – | 0.378 µM | – | 99% | – | – | – | –
7 | Cn1cc(CCN)c2c3c(ccc21)OCCC3 | 96% | – | 0.0028 µM | – | – | – | 8.41 µM | – | – | – | 70% | 0.0011 µM | 0.213 µM | 0.0082 µM | –
8 | CC(N)Cc1cn(C)c2ccc3c(c12)CCCO3 (stereo not given) | 102% | <26.1% | 0.0005 µM | 0.028 µM | <18.8% | 0.011 µM | 12.2 µM | <28% | > 10 µM | 0.0027 µM | 79% | 0.0002 µM | 0.134 µM | – | –
9 | COc1cc(C[C@@H](C)N)c(OC)cc1I | – | 34.4% | 0.0004 µM | – | 11% | 0.018 µM | – | 25.3% | – | 0.004 µM | 33% | 0.0001 µM | 0.0277 µM | – | –
10 | CN(C)CCc1c[nH]c2ccc3c(c12)CCCO3 | 63% | – | – | – | – | 0.026 µM | 0.562 µM | – | – | 0.016 µM | 47% | – | – | 0.017 µM | –
